T1: rat liver microsomal CYP1A2 (Rattus norvegicus, UniProt P04799)
T1 construct: rat liver microsomes
T1 sequence (P04799 2-513): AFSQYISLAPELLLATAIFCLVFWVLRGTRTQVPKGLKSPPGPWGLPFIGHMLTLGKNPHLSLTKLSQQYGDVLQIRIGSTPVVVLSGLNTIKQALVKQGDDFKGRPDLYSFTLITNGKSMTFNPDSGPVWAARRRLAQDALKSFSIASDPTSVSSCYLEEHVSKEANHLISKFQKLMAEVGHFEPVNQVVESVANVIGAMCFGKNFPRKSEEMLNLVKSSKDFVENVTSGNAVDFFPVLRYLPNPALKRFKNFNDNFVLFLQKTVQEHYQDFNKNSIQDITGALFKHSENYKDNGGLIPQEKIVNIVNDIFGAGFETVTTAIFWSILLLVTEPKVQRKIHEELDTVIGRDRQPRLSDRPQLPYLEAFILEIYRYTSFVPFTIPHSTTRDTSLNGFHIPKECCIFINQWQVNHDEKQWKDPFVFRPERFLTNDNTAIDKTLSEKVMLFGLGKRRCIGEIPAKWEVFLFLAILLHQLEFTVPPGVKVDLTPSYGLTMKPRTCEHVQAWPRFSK


Columns and labels:
[1] = biological target: T1, rat liver microsomal CYP1A2; assay: MROD fluorescence assay in rat liver microsomes, inhibition kinetics (IC50 […]); type: biochemical
[2] = substrate: COc1ccc2nc3ccc(=O)cc-3oc2c1; assay: MROD kinetics with recombinant CYP1A2 membranes; value is Km; type: biochemical, Homo sapiens; conditions: heme; NADPH

| Molecule | Ki [1] [µM] | Km [2] [µM] |
| --- | --- | --- |
| Oc1ccc(/C=C/c2cc(O)cc(O)c2)cc1 [RSV, trans-3,4′,5-trihydroxystilbene] | 49.1 | – |
| human recombinant CYP1A2 (Homo sapiens) (protein, human CYP1A2 expressed with NADPH P450 reductase in Escherichia coli DH5α; bacterial membranes; with NADPH P450 reductase) ALSQSVPFSATELLLASAIFCLVFWVLKGLRPRVPKGLKSPPEPWGWPLLGHVLTLGKNPHLALSRMSQRYGDVLQIRIGSTPVLVLSRLDTIRQALVRQGDDFKGRPDLYTSTLITDGQSLTFSTDSGPVWAARRRLAQNALNTFSIASDPASSSSCYLEEHVSKEAKALISRLQELMAGPGHFDPYNQVVVSVANVIGAMCFGQHFPESSDEMLSLVKNTHEFVETASSGNPLDFFPILRYLPNPALQRFKAFNQRFLWFLQKTVQEHYQDFDKNSVRDITGALFKHSKKGPRASGNLIPQEKIVNLVNDIFGAGFDTVTTAISWSLMYLVTKPEIQRKIQKELDTVIGRERRPRLSDRPQLPYLEAFILETFRHSSFLPFTIPHSTTRDTTLNGFYIPKKCCVFVNQWQVNHDPELWEDPSEFRPERFLTADGTAINKPLSEKMMLFGMGKRRCIGEVLAKWEIFLFLAILLQQLEFSVPPGVKVDLTPIYGLTMKHARCEHVQARLRFSIN | – | 1.67 |
